{
  "source": "patent US20030170826A1",
  "about": "“Peptides for facilitating composite receptor expression and translocation of macromolecules” (priority 2001, published 2003)",
  "molecules": {"B1": {"name": "fluor-G4YGRKKRRQR3G3MPNLWFL2FLGLVA2MQL5FL3F2LVYW DHFECSCTGLPF (peptide)", "chain": "fluor-GGGGYGRKKRRQRRRGGGMPNLWFLLFLGLVAAMQLLLLLFLLLFFLVYWDHFECSCTGLPF"}},
  "key": {"HeLa cells [1]": {"tested_on": "HeLa cells", "experiment": "Peptide mediated uptake of oligonucleotide FITC-O-24, FACS (FIG. 7)", "format": "cell-based, human", "conditions": "peptide 0.0-150 μM, fifteen minutes at room temperature", "description": "Flow cytometric analyses of cell subpopulations for these and other experiments described herein were performed using a FACS Vantage flow cytometer (Becton-Dickinson Immunocytometry Systems, San Jose, Calif.). The cells were excited at 488 nm. The FITC fluorescence was collected through a 530/30 nm band pass filter. A minimum of ten thousand cells was interrogated in each sample. Analysis of data was performed using CellQuest software (Becton-Dickinson).\nTo detect fluorescent labeled molecules associated with cells, the cells were first harvested in DPBS, incubated with a fluorescent labeled molecule of interest at varied concentrations (e.g., oligonucleotide at 50 μM mixed with 1×10^5 cells in 10 μl DPBS), incubated for 15 minutes at room temperature, diluted with 200 μl growth medium, and then analyzed by fluorescence activated cell sorting (FACS).\nNext, various peptide sequences and domains were tested for their abilities to facilitate translocation of the oligonucleotide FITC-O-24 across a cell membrane. The peptides tested included: K16 (G4K16; SEQ ID NO: 47); TAT (G4YGRKKRRQR3; SEQ ID NO: 48); TAK8 (G4YGRKKRRQR3G4K8; SEQ ID NO: 49); TAK12 (G4YGRKKRRQR3G4K12; SEQ ID NO: 50) and TAK16/TatK16 (G4YGRKKRRQR3G4K16; SEQ ID NO: 36). HeLa cells (1×10^5) were incubated with the oligonucleotide (0.6 μl, 50 μM) in 10 μl DPBS and various concentrations of the peptides (i.e., 0.0, 1.5, 5.0, 15.0, 50.0, or 150 μM). The cells were incubated in the presence of the mixtures for fifteen minutes at room temperature and then analyzed by FACS."}, "SupFG1 gene": {"tested_on": "SupFG1 gene", "experiment": "Chromosomal mutations induced in the SupFG1 gene by triplex forming oligonucleotides", "format": "cell-based", "conditions": "murine cell line with SupFG1 gene in the genome; mutations/total plaques", "description": "The ability of TAK16 to facilitate translocation of oligonucleotides designed to form triplex DNA complexes with the SupFG1 sequence was tested in a murine cell line in which the SupFG1 gene is incorporated into the genome. The assay used measures chromosomal mutations induced in the SupFG1 gene by triplex forming oligonucleotides, as measured by mutations/total plaques. The ability of TAK16 to translocate triplex forming oligonucleotides was compared to that of Antennapedia (ANTP)-s-s-oligo complex and the lipid delivery system Gene Porter. The two oligonucleotides tested were AG13 (5′-AGGAA8-propylamine-3′; SEQ ID NO: 58) and AG30 (5′-AGGAAG8TGGTG5AG5AG-propylamine-3′; SEQ ID NO: 59). The groups tested were 1) control (no treatment); 2) AG13 alone; 3) AG13+Gene Porter; 4) AG13-s-s-ANTP; 5) AG13+TAK16; 6) AG30+Gene Porter; and 7) AG30+TAK16. […] It can be seen that the two highest mutation rates occurred in cells treated with AG13+TAK16 (group 5; 40×10^−5) and AG30+TAK16 (group 7; 36×10^−5)."}, "SK-BR-3 cells [2]": {"tested_on": "SK-BR-3 cells", "conditions": "200 nM peptide, 15 minutes on ice", "description": "FIG. 3, comprising FIG. 3A, FIG. 3B, and FIG. 3C, is a series of images of fluorescent micrographs illustrating the effects of a cell penetrating domain on the efficiency of composite receptors binding.\nSK-BR-3 cells were collected and washed and resuspended in DPBS-BSA. Then, 5×10^4 cells were mixed with 200 nM CR1 or delta-CR1 in 40 μl DPBS-BSA and incubated 15 minutes on ice. The cell were then washed in DPBS-BSA, resuspended in 50 μl DPBS-BSA, washed, and applied to slides. Fluorescence was analyzed by fluorescence microscopy using a monochrome filter for FITC. […] FIG. 3C depicts cells incubated with […] CR1."}, "SK-BR-3 cells [3]": {"tested_on": "SK-BR-3 cells", "experiment": "Peptide facilitated translocation of Cy3-O18 oligonucleotide, fluorescence microscopy (FIG. 6)", "format": "cell-based, human", "conditions": "for Cy3 label of the oligonucleotide in cells: mixture of Cy3-oligonucleotide and fluorescein labeled peptide"}, "SK-BR-3 cells [4]": {"tested_on": "SK-BR-3 cells", "conditions": "60 nM CR1 or CR1R, 30 minutes on ice, sodium azide", "experimental": "This difference in membrane orientation can be detected using an anti-FITC antibody which cannot penetrate the cellular membrane and therefore can only bind to an FITC on the outer cell surface. For CR1, FITC is an intracellular domain. However, for CR1R, FITC is an extracellular domain. […] SK-BR-3 cells were collected and washed in DPBS with 0.5% BSA (DPBS-BSA), resuspended in DPBS-BSA with 10 mM Sodium Azide, incubated for 20 minutes at room temperature, transferred to ice. 5×10^4 cells were mixed with 60 nM CR1 or CR1R in 20 μl DPBS-BSA, incubated 30 min on ice, washed in DPBS-BSA -Azide, and then resuspended in 50 μl DPBS-BSA-Azide. Then, 50 μl of anti-antibody in DPBS-BSA-Azide (dilution 1:50) was added, the suspension incubated on ice for 30 minutes, and then the cells were washed and applied to slides. Alexa-Fluor 594 fluorescence was analyzed by microscope using monochrome filter for Cy3.5.\nThis difference in orientation can be detected using an anti-FITC antibody which cannot penetrate the cellular membrane and therefore can only bind FITC which is on the outside cell surface and not inside the cell. […] Alexa-Fluor 594 fluorescence was analyzed using a fluorescent microscope and a monochrome filter for Cy3.5."}, "[5]": {"experiment": "Intracellular transport of beta-galactosidase conjugated to an oligonucleotide", "format": "cell-based", "conditions": "similar experiments"}, "HeLa cells [6]": {"tested_on": "HeLa cells", "experiment": "TAK16 mediated uptake of FITC-O-24, fluorescence microscopy (FIG. 8)", "format": "cell-based, human", "conditions": "TAK16 0.00, 0.36, 1.80 or 9.00 μM, FITC-O-24 2.5 μM"}, "HeLa cells [7]": {"tested_on": "HeLa cells", "experiment": "Peptide-oligo mediated uptake of avidin-FITC (FIG. 12)", "format": "cell-based, human"}, "HeLa cells [8]": {"tested_on": "HeLa cells", "experiment": "TAK16 mediated uptake of 83-mer oligonucleotide O-83-FITC, FACS and fluorescence microscopy (FIG. 9, 10)", "format": "cell-based, human", "conditions": "TAK16 13.3 μM, O-83-FITC 0.00-1.8 μM"}, "SK-BR-3 cells [9]": {"tested_on": "SK-BR-3 cells", "experiment": "Localization of fluorescein labeled composite receptor peptides in cells, fluorescence microscopy (FIG. 1)", "format": "cell-based, human", "conditions": "800 nM Tat-K16, 800 nM CR1 or 400 nM CR2, 15 minutes"}, "HeLa cells [10]": {"tested_on": "HeLa cells", "experiment": "Peptide-oligo mediated uptake of horseradish peroxidase-avidin (HPA), cytochemical analysis (FIG. 13)", "format": "cell-based, human", "conditions": "TAK16 and Bio-O-22, 30 minutes at 37° C.", "description": "To further determine the ability of a fusion peptide to facilitate transport of a molecule associated with a nucleic acid across a cell membrane, TAK16 was tested for its ability to mediate transport of another protein. In this example, the protein horseradish peroxidase (HRP) was tested. The HRP was conjugated to avidin to yield 120 kD Horseradish Peroxidase-Avidin (HPA). Cells were obtained as above. HPA and Bio-O-22 were added to cells in DPBS at final concentrations of 8 μM and 8 μM, respectively, and then incubated for 15 minutes at room temperature. Then, 2.5 μl of the mix was added to 2×10^5 HeLa cells in 10 μl DPBS. Next, 12.5 μl of 100 μM TAK16 in DPBS was added to the mixture and incubated for 30 minutes at 37° C. Then the cells were washed and applied to slides. Cells on the slides were treated with 30 μl peroxidase suppressor solution to suppress endogenous peroxidase, washed with DPBS, treated with 30 μl Metal Enhanced DAB Substrate Working Solution, incubated for 15 minutes at room temperature, and then subjected to microscopic analysis. […] HPA activity or presence was detected using the DAB kit and the manufacturer's protocol."}, "HeLa cells [11]": {"tested_on": "HeLa cells", "experiment": "TAK16 mediated uptake of Cy3 labeled 400 bp double stranded DNA and 5 kb plasmid DNA (FIG. 11)", "format": "cell-based, human", "description": "Next, it was decided to determine whether even larger nucleotides, including double stranded (DS) DNA or plasmid DNA, could be transported into a cell. Specifically, it was determined whether TAK16 could facilitate the transport of 400 base pair (bp) double stranded DNA and a 5 kb circular plasmid DNA (pECFP; enhanced cyano fluorescent protein) into cells. The DNAs were labeled with Cy3 reagent (“Label IT” Cy3 Nucleic Acid Labeling Kit; Mirus, Madison, Wis.), according to manufacturer's directions. This protocol usually yields one label per up to ten nucleotides. To this end, HeLa cells were prepared as above and then incubated with 400 ng of plasmid DNA or 60 ng of 400 bp DNA and with TAK16 (12 μM)."}, "SK-BR-3 cells [12]": {"tested_on": "SK-BR-3 cells", "experiment": "Translocation of fluorescein labeled peptides containing a cell penetrating domain (FIG. 5)", "format": "cell-based, human", "conditions": "800 nM peptide, fifteen minutes at 37° C."}},
  "note": "Ends that are not written are not given here. {propylamine} = propylamine end group; fluorescein = fluorescein label; fluor = fluorescein label",
  "data": [
    {"molecule": "G4YGRKKRRQR3G4K12 (GGGGYGRKKRRQRRRGGGGKKKKKKKKKKKK; Human immunodeficiency virus type 1) [TAK12]", "values": [
      {"measurement": "facilitating transport of FITC-O-24 across the cell membrane", "setting": "HeLa cells [1]", "value": "decreased ability to facilitate transport"}
    ]},
    {"molecule": "5′-AGGAA8-propylamine-3′ (AGGAAAAAAAAA; 3' {propylamine}, sugars by position and backbone not given here) [AG13]", "values": [
      {"measurement": "chromosomal mutation frequency induced in the SupFG1 gene", "setting": "SupFG1 gene", "value": "8 ×10^−5"}
    ]},
    {"molecule": "FITC-G3G3AAL3A19WK8-biotin [delta-CR1]", "values": [
      {"measurement": "FITC fluorescence on the cell membrane", "setting": "SK-BR-3 cells [2]", "value": "low level of fluorescence on the cell membrane"}
    ]},
    {"molecule": "fluor-G4YGRKKRRQR (fluorescein-GGGGYGRKKRRQR) [Tat, reference compound]", "values": [
      {"measurement": "Cy3 label of the oligonucleotide in cells", "setting": "SK-BR-3 cells [3]", "value": "not detected"}
    ]},
    {"molecule": "G4K16 (GGGGKKKKKKKKKKKKKKKK; FITC-0-24 oligonucleotide cell membrane translocation facilitating peptide) [reference compound]", "values": [
      {"measurement": "facilitating transport of FITC-O-24 across the cell membrane", "setting": "HeLa cells [1]", "value": "Neither TAT, nor adapter domain, K16, were able to efficiently facilitate transport"}
    ]},
    {"molecule": "biotin-G3YGRKKRRQR3G3AAL3A19WK8-FITC [CR1R]", "values": [
      {"measurement": "fluorescence of anti-fluorescein (anti-FITC) antibodies, Alexa-Fluor 594", "setting": "SK-BR-3 cells [4]", "value": "higher"}
    ]},
    {"molecule": "G4YGRKKRRQR3G4K8 (GGGGYGRKKRRQRRRGGGGKKKKKKKK; Human immunodeficiency virus type 1) [TAK8]", "values": [
      {"measurement": "facilitating transport of FITC-O-24 across the cell membrane", "setting": "HeLa cells [1]", "value": "decreased ability to facilitate transport"}
    ]},
    {"molecule": "fluor-G4YGRKKRRQR3G4K16 (fluorescein-GGGGYGRKKRRQRRRGGGGKKKKKKKKKKKKKKKK) [Tat-K16]", "values": [
      {"measurement": "intracellular transport of a 140 kD protein (beta-galactosidase) conjugated to an oligonucleotide", "setting": "[5]", "value": "able to facilitate intracellular transport"},
      {"measurement": "fluorescent intensity associated with FITC-O-24", "setting": "HeLa cells [6]", "value": "increased in the cells incubated with increased amounts of TAK16 peptide"},
      {"measurement": "oligonucleotide Cy3-O18 translocation through the cell membrane", "setting": "SK-BR-3 cells [3]; 500 nM oligonucleotide and 80 nM peptide, fifteen minutes at 37° C.", "value": "facilitated"},
      {"measurement": "Cy3 label of the oligonucleotide in cells", "setting": "SK-BR-3 cells [3]", "value": "located in the cytoplasm as well as in the nucleus"},
      {"measurement": "fluorescence of avidin-FITC in cells, with oligonucleotide Bio-O-22", "setting": "HeLa cells [7]; TAK16 + Bio-O-22 + avidin-FITC, 20 minutes at 37° C.", "value": "much higher levels of fluorescence"},
      {"measurement": "fluorescence of avidin-FITC in cells, no oligonucleotide", "setting": "HeLa cells [7]; TAK16 and avidin-FITC, without Bio-O-22", "value": "did not exhibit appreciable levels of fluorescence"},
      {"measurement": "cell associated fluorescent intensity of O-83-FITC (FACS)", "setting": "HeLa cells [8]; FACS", "value": "increased with increasing amounts of the 83-mer"},
      {"measurement": "cellular associated fluorescence of O-83-FITC (microscopy)", "setting": "HeLa cells [8]; fluorescent microscopic analysis", "value": "increased cellular associated fluorescence"},
      {"measurement": "facilitating transport of FITC-O-24 across the cell membrane", "setting": "HeLa cells [1]", "value": "most efficient"},
      {"measurement": "localization of fluorescein labeled peptide in the cell", "setting": "SK-BR-3 cells [9]", "value": "located throughout the cell"},
      {"measurement": "HPA uptake, with oligonucleotide Bio-O-22", "setting": "HeLa cells [10]", "value": "facilitated"},
      {"measurement": "cells with uptake of large double stranded DNA molecules, linear and circular", "setting": "HeLa cells [11]; TAK16 12 μM", "value": "~100", "unit": "%"},
      {"measurement": "uptake of Cy3 labeled 400 bp DS DNA or plasmid DNA (fluorescence)", "setting": "HeLa cells [11]; […], TAK16 12 μM or no peptide", "value": "obvious fluorescence"},
      {"measurement": "entry of peptide into the cell and localization", "setting": "SK-BR-3 cells [12]", "value": "entered the cell and were located in both the cytoplasm and the nucleus"}
    ]},
    {"molecule": "fluor-G3YGRKKRRQR3G3AAL3A19WK8-biotin [CR1]", "values": [
      {"measurement": "FITC fluorescence on the cell membrane", "setting": "SK-BR-3 cells [2]", "value": "high levels of fluorescence occur on the cell membrane"},
      {"measurement": "localization of fluorescein labeled peptide in the cell", "setting": "SK-BR-3 cells [9]", "value": "localized at the periphery of the cells, in a speckled distribution"}
    ]},
    {"molecule": "B1", "values": [
      {"measurement": "localization of fluorescein labeled peptide in the cell", "setting": "SK-BR-3 cells [9]", "value": "localized in a few foci at the cell surface"}
    ]}
  ]
}
